From ChEMBL document CHEMBL1153785, “Antimalarial activity of azafluorenone alkaloids from the Australian tree Mitrephora diversifolia” (J Nat Prod, 2009)
pIC50: −log10 of the molar value.

Tests used:
[1] = system: HEK293; assay: Cytotoxicity against human HEK293 cells up to 120 uM after 72 hrs by Alamar blue assay; assay type: cell-based; settings: hek293, 72 h
[2] = system: Plasmodium falciparum; assay: Antimalarial activity against chloroquine-resistant Plasmodium falciparum Dd2 at 120 uM after 72 hrs by DAPI staining method
[3] = system: Plasmodium falciparum; assay: Antimalarial activity against chloroquine-sensitive Plasmodium falciparum 3D7 at 120 uM after 72 hrs by DAPI staining method; assay type: functional
[4] = system: Plasmodium falciparum; assay: Antimalarial activity against chloroquine-sensitive Plasmodium falciparum 3D7 after 72 hrs by DAPI staining method; assay type: functional, organism-based; settings: 3D7, 72 h
[5] = system: Plasmodium falciparum; assay: Antimalarial activity against chloroquine-resistant Plasmodium falciparum Dd2 after 72 hrs by DAPI staining method; settings: Dd2, 72 h
[6] = Cytotoxicity against human HEK293 cells at 120 uM after 72 hrs by Alamar blue assay; assay type: cell-based; settings: read-out: GI

SMILES	Activity [1]	Activity [2]	Activity [3]	pIC50 [4]	pIC50 [5]	inhibition at 72 h, 120 µM [6]
COc1cc(O)c2c(c1O)-c1nccc(C)c1C2=O	Non-toxic	80%	87%	–	–	–
COc1ccc2c(c1O)-c1nccc(C)c1C2=O	–	–	–	5.00	4.94	96%
